The record followed here is US20230127326A1, “C3-SUBSTITUTED 1H-PYRAZOLO[4,3-d]PYRIMIDINE COMPOUNDS AS TOLL-LIKE RECEPTOR 7 (TLR7) AGONISTS” (BRISTOL-MYERS SQUIBB COMPANY, priority 2020, published 2023).

The EC50 is the concentration at which the effect is half-maximal.

One assay concerns CD69. In words: Induction of CD69 in human whole blood. Format: cell-based. The note with it: 17 hrs at 37° C., y-axis 100% set to 1 uM of resiquimod, average where assay was performed multiple times, read-out: hWB CD69 EC50. The protocol:
The induction of Type I interferon (IFN) MX-1 genes and the B-cell activation marker CD69 are downstream events that occur upon activation of the TLR7 pathway. The following is a human whole blood assay that measures their induction in response to a TLR7 agonist.
Heparinized human whole blood was harvested from human subjects and treated with test TLR7 agonist compounds at 1 mM. The blood was diluted with RPMI 1640 media and Echo was used to predot 10 nL per well giving a final concentration of 1 uM (10 nL in 10 uL of blood). After mixing on a shaker for 30 sec, the plates were covered and placed in a 37° C. chamber for o/n=17 hrs. Fixing/lysis buffer was prepared (5×->1× in H2O, warm at 37° C.; Cat #BD 558049) and kept the perm buffer (on ice) for later use.
For surface markers staining (CD69): prepared surface Abs: 0.045 ul hCD14-FITC (ThermoFisher Cat #MHCD1401)+0.6 ul hCD19-ef450 (ThermoFisher Cat #48-0198-42)+1.5 ul hCD69-PE (cat #BD555531)+0.855 ul FACS buffer. Added 3 ul/well, spin 1000 rpm for 1 min and mixed on shaker for 30 sec, put on ice for 30 mins. Stop stimulation after 30 minutes with 70 uL of prewarmed 1× fix/lysis buffer and use Feliex mate to resuspend (15 times, change tips for each plate) and incubate at 37 C for 10 minutes.
Centrifuge at 2000 rpm for 5 minutes aspirate with HCS plate washer, mix on shaker for 30 sec and then wash with 70 uL in dPBS and pelleted 2×s (2000 rpm for 5 min) and 50 ul wash in FACS buffer pelleted 1×s (2000 rpm for 5 min). Mix on shaker for 30 sec. For Intracellular markers staining (MX-1): Add 50 ul of BD Perm buffer III and mix on shaker for 30 sec. Incubate on ice for 30 minutes (in the dark). Wash with 50 uL of FACS buffer 2× (spin @2300 rpm×5 min after perm) followed by mixing on shaker for 30 sec. Resuspended in 20 ul of FACS buffer containing MX1 antibody ( )(4812)-Alexa 647: Novus Biologicals #NBP2-43704AF647) 20 ul FACS bf+0.8 ul hIgG+0.04 ul MX-1. Spin 1000 rpm for 1 min, mix on shaker for 30 se and the samples were incubated at RT in the dark for 45 minutes followed by washing 2×FACS buffer (spin @2300 rpm×5 min after perm). Resuspend 20 ul (35 uL total per well) of FACS buffer and cover with foil and place in 4° C. to read the following day. Plates were read on iQuePlus. The results were loaded into toolset and […] curves are generated in curve master. The y-axis 100% is set to 1 uM of resiquimod.

A further assay has as its target T1, human TLR7 (Homo sapiens, UniProt Q9NYK1).
T1 construct: host or cells: HEK-Blue TLR7 cells (engineered human embryonic kidney cells)
T1 sequence (Q9NYK1 27-1049): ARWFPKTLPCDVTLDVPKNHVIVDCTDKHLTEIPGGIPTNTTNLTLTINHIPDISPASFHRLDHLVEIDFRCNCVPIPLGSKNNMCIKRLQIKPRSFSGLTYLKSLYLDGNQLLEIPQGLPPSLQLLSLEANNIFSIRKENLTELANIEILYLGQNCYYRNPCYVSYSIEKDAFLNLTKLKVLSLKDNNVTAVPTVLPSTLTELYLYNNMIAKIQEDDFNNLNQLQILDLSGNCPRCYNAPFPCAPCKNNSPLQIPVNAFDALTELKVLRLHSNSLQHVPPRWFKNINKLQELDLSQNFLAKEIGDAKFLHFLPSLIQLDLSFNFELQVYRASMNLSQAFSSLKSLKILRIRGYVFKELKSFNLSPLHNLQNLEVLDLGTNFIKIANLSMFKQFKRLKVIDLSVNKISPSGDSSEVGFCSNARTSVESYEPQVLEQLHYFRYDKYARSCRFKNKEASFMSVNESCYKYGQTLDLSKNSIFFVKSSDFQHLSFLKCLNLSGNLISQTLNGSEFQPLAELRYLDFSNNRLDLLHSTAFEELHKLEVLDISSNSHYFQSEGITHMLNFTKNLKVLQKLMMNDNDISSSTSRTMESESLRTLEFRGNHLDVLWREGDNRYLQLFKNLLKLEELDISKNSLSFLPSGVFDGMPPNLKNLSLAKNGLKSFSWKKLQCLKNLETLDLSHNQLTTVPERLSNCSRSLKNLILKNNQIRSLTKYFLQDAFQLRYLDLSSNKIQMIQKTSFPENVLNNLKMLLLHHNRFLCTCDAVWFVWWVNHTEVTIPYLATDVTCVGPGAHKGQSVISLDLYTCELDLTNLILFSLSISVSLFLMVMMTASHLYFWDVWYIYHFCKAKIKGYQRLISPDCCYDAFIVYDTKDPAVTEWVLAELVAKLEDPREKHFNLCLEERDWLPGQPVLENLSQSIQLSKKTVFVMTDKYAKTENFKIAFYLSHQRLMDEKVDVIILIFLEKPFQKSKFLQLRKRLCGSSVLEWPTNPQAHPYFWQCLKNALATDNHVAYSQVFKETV
In words: Human TLR7 agonist activity reporter assay (HEK-Blue TLR7 cells, SEAP reporter). Type of assay: cell-based. The following applies: 18 h treatment, average where assay was performed multiple times, read-out: hTLR7 Agonism EC50. The protocol:
This procedure describes a method for assaying human TLR7 (hTLR7) agonist activity of the compounds disclosed in this specification.
HEK-Blue™ TLR7 cells were added to each well of a 384-well tissue-culture plate (15,000 cells per well) and incubated 16-18 h at 37° C., 5% CO2. Compounds (100 nl) were dispensed into wells containing the HEK-Blue™ TLR cells and the treated cells were incubated at 37° C., 5% CO2. After 18 h treatment ten microliters of freshly-prepared Quanti-Blue™ reagent (Invivogen) was added to each well, incubated for 30 min (37° C., 5% CO2) and SEAP levels measured using an Envision plate reader (OD=620 nm). The half maximal effective concentration values (EC50; compound concentration which induced a response halfway between the assay baseline and maximum) were calculated.

Consider `CCCCNc1nc(N)nc2c(C)nn(Cc3ncc(CN4CCN(CCO)CC4)cc3OC)c12` [Compound 131, 2-{4-[(6-{[5-amino-7-(butyl-amino)-3-methyl-1H-pyrazolo[4,3-d]pyrimidin-1-yl]methyl}-5-methoxy-pyridin-3-yl)methyl]piperazin-1-yl}ethan-1-ol], for which the EC50 in the assay with CD69 came to 41.4 nM; at human TLR7, 224 nM.
For `CCC[C@@H](CCO)Nc1nc(N)nc2c(F)nn(Cc3ccc(CN[C@@H]4COC[C@H]4O)cc3OC)c12` [Compound 132, (3S,4R)-4-[({4-[(5-amino-3-fluoro-7-{[(3S)-1-hydroxy-hexan-3-yl]amino}-1H-pyrazolo[4,3-d]pyrimidin-1-yl)-methyl]-3-methoxyphenyl}-methyl)amino]oxolan-3-ol] the same measures were 9.3 nM and 40.4 nM.
On the same counts, the results for `CCC[C@@H](CCO)Nc1nc(N)nc2c(F)nn(Cc3ccc(CN[C@H]4COC[C@@H]4O)cc3OC)c12` [Compound 133, (3R,4S)-4-[({4-[(5-amino-3-fluoro-7-{[(3S)-1-hydroxy-hexan-3-yl]amino}-1H-pyrazolo[4,3-d]pyrimidin-1-yl)-methyl]-3-methoxyphenyl}-methyl)amino]oxolan-3-ol] are 12.6 nM and 47.9 nM.
